These results are taken from patent US10457679B2, “Imidazo[4,5-c]quinolin-2-one compounds and their use in treating cancer” (AstraZeneca AB, priority 2015, dated 2019).

Where only a bound is given, the exact number is not on record here.

The IC50 is the concentration that inhibits the measured activity by half.

The target of one experiment is T1, mTOR (Homo sapiens, UniProt P42345).
T1 construct: endogenous in cells; host or cells: MDA-MB-468 cells (ATCC HTB 132)
The experiment is described as follows: Assay d) mTOR cellular potency (phospho-AKT Ser473 in MDA-MB-468 cells). The class given is cell-based. Particulars: pAKT Ser473, Protocol A (§); read-out: Assay d) mTOR Cell IC50. On the procedure: Assay d): mTOR Cellular Potency
This assay was used to measure mTOR inhibition in cells. The aim of the phospho-AKT cell based mechanism of action assay using the Acumen Explorer is to identify inhibitors of either PI3Kα or mTOR-Rictor (Rapamycin insensitive companion of mTOR). This is measured by any decrease in the phosphorylation of the Akt protein at Ser473 (AKT lies downstream of PI3Kα in the signal transduction pathway) in the MDA-MB-468 cells following treatment with compound. Method Details:
MDA-MB-468 cells (human breast adenocarcinoma #ATCC HTB 132) were seeded at 1500 cells/well in 40 μl of DMEM containing 10% FBS and 1% glutamine into Greiner 384 well black flat-bottomed plates. Cell plates were incubated for 18 h in a 37° C. incubator before dosing with compounds of Formula (I) in 100% DMSO using acoustic dispensing. Compounds were dosed in a 12 point concentration range into a randomised plate map. Control wells were generated either by dosing of 100% DMSO (max signal) or addition of a reference compound (a PI3K-β inhibitor) that completely eliminated the pAKT signal (min control). Compounds were then tested by one of two assay protocols A or B:
Plates were incubated at 37° C. for 2 h; cells were then fixed by the addition of 10 μl of a 3.7% formaldehyde solution. After 30 minutes the plates were washed with PBS using a Tecan PW384 plate washer. Wells were blocked and cells permeabilised with the addition of 40 μl of PBS containing 0.5% Tween20 and 1% Marvel™ (dried milk powder) and incubated for 60 minutes at r.t. The plates were washed with PBS containing 0.5% (v/v) Tween20 and 20 μl rabbit anti-phospho AKT Ser473 (Cell Signalling Technologies, #3787) in same PBS-Tween+1% Marvel™ was added and incubated overnight at 4° C.
Plates were washed 3 times with PBS+0.05% Tween 20 using a Tecan PW384. 20 μl of secondary antibody Alexa Fluor 488 anti-Rabbit (Molecular Probes, #A11008) diluted in PBS+0.05% Tween20 containing 1% Marvel™ was added to each well and incubated for 1 h at r.t. Plates were washed three times as before then 20 μl PBS added to each well and plates sealed with a black plate sealer.
The plates were read on an Acumen plate reader as soon as possible, measuring green fluorescence after excitation with 488 nm laser. Using this system IC50 values were generated and quality of plates was determined by control wells. Reference compounds were run each time to monitor assay performance.
The cell plates were then incubated for 2 h at 37° C. before being fixed by the addition of 20 μl 3.7% formaldehyde in PBS/A (1.2% final concentration), followed by a 30 minute room temperature incubation, and then a 2× wash with 150 μl PBS/A using a BioTek ELx406 platewasher. Cells were permeabilised and blocked with 20 μl of assay buffer (0.1% Triton X-100 in PBS/A+1% BSA) for 1 h at room temperature, and then washed 1× with 50 μl PBS/A. Primary phospho-AKT (Ser473) D9E XP® rabbit monoclonal antibody (#4060, Cell Signaling Technology) was diluted 1:200 in assay buffer, 20 μl added per well, and plates were incubated at 4° C. overnight. Cell plates were washed 3× with 200 μl PBS/T, then 20 μl 1:750 dilution in assay buffer of Alexa Fluor® 488 goat anti-rabbit IgG secondary antibody (#A11008, Molecular Probes, Life Technologies), with a 1:5000 dilution of Hoechst 33342, was added per well. Following a 1 h incubation at room temperature, plates were washed 3× with 200 μl PBS/T, and 40 μl PBS w/o Ca, Mg and Na Bicarb (Gibco #14190-094) was added per well.
Stained cell plates were covered with black seals, and then read on the Cell Insight imaging platform (Thermo Scientific), with a 10× objective. The primary channel (Hoechst blue fluorescence 405 nM, BGRFR_386_23) was used to Autofocus and to count number of events (this provided information about cytotoxicity of the compounds tested). The secondary channel (Green 488 nM, BGRFR_485_20) measured pAKT staining. […]
With `CC(C)n1c(=O)n(C)c2cnc3cc(F)c(-c4ccc(OCCCN5CCC5)nc4)cc3c21` [Example 4, 8-[6-[3-(azetidin-1-yl)propoxy]-3-pyridyl]-7-fluoro-1-isopropyl-3-methyl-imidazo[4,5-c]quinolin-2-one], the concentration for half-maximal inhibition (IC50) was > 30 µM.
As for `CC(C)n1c(=O)[nH]c2cnc3cc(F)c(-c4ccc(OCCCN5CCCCC5)nc4)cc3c21` [Example 18, 7-Fluoro-1-isopropyl-8-[6-[3-(1-piperidyl)propoxy]-3-pyridyl]-3H-imidazo[4,5-c]quinolin-2-one], the IC50 was > 30 µM.
Regarding `CC(C)n1c(=O)n(C)c2cnc3cc(F)c(-c4ccc(OCCCN5CCC5)nc4F)cc3c21` [Example 16, 8-[6-[3-(azetidin-1-yl)propoxy]-2-fluoro-3-pyridyl]-7-fluoro-1-isopropyl-3-methyl-imidazo[4,5-c]quinolin-2-one], the IC50 is > 29.9 µM.
Still for that read-out and setting: with `CC(C)n1c(=O)n(C)c2cnc3cc(F)c(-c4ccc(OCCCN5CCCC5)nc4)cc3c21` [Example 3, 7-Fluoro-1-isopropyl-3-methyl-8-[6-(3-pyrrolidin-1-ylpropoxy)-3-pyridyl]imidazo[4,5-c]quinolin-2-one] the figure was > 20 µM.
Consider `CC(C)n1c(=O)n(C)c2cnc3ccc(-c4ccc(OCCCN5CCCCC5)nc4F)cc3c21` [Example 9, 8-[2-Fluoro-6-[3-(1-piperidyl)propoxy]-3-pyridyl]-1-isopropyl-3-methyl-imidazo[4,5-c]quinolin-2-one], for which the IC50 is > 5.19 µM.
On the same count and under the same terms, with `CC(C)n1c(=O)n(C)c2cnc3ccc(-c4ccc(OCCCN(C)C)nc4)cc3c21` [Example 6, 8-[6-[3-(dimethylamino)propoxy]-3-pyridyl]-1-isopropyl-3-methyl-imidazo[4,5-c]quinolin-2-one] the figure was > 3.12 µM.

The experiment is the same for the next values; noted with them: pAKT Ser473, Protocol B (*); read-out: Assay d) mTOR Cell IC50.
On to `CC(C)n1c(=O)n(C)c2cnc3cc(F)c(-c4ccc(OCCCN5CCCCC5)nc4)cc3c21` [Example 2, 7-Fluoro-1-isopropyl-3-methyl-8-[6-[3-(1-piperidyl)propoxy]-3-pyridyl]imidazo[4,5-c]quinolin-2-one], for which the 50% inhibitory concentration (IC50) is > 30 µM.
The same measure, in the same setting: with `CC(C)n1c(=O)n(C)c2cnc3ccc(-c4ccc(OCCCN5CCCC5)nc4)cc3c21` [Example 7, 1-isopropyl-3-methyl-8-[6-(3-pyrrolidin-1-ylpropoxy)-3-pyridyl]imidazo[4,5-c]quinolin-2-one] the figure was 3.19 µM; with `CC(C)n1c(=O)n(C)c2cnc3cc(F)c(-c4ccc(OCCCN5CCCC5)nc4F)cc3c21` [Example 13, 7-fluoro-8-[2-fluoro-6-(3-pyrrolidin-1-ylpropoxy)-3-pyridyl]-1-isopropyl-3-methyl-imidazo[4,5-c]quinolin-2-one], > 30 µM.
On the same count and under the same terms, with `CC(C)n1c(=O)n(C)c2cnc3cc(F)c(-c4ccc(OCCC[N+]5([O-])CCCCC5)nc4)cc3c21` [Metabolite A, 7-Fluoro-1-isopropyl-3-methyl-8-[6-[3-(1-oxidopiperidin-1-ium-1-yl)propoxy]-3-pyridyl]imidazo[4,5-c]quinolin-2-one] the figure was > 30 µM; with `CC(C)n1c(=O)n(C)c2cnc3ccc(-c4ccc(OCCCN5CCCC5)nc4F)cc3c21` [Example 12, 8-[2-fluoro-6-(3-pyrrolidin-1-ylpropoxy)-3-pyridyl]-1-isopropyl-3-methyl-imidazo[4,5-c]quinolin-2-one], > 10 µM.
Consider `CC(C)n1c(=O)n(C)c2cnc3ccc(-c4ccc(OCCCN5CCC5)nc4)cc3c21` [Example 8, 8-[6-[3-(Azetidin-1-yl)propoxy]-3-pyridyl]-1-isopropyl-3-methyl-imidazo[4,5-c]quinolin-2-one], for which the IC50 stood at 0.405 µM.
In the case of `CC(C)n1c(=O)n(C)c2cnc3cc(F)c(-c4ccc(OCCCN5CCCCC5)nc4F)cc3c21` [Example 14, 7-fluoro-8-[2-fluoro-6-[3-(1-piperidyl)propoxy]-3-pyridyl]-1-isopropyl-3-methyl-imidazo[4,5-c]quinolin-2-one], the concentration for half-maximal inhibition (IC50) is > 30 µM.
The same measure, in the same setting: the value for `CC(C)n1c(=O)n(C)c2cnc3ccc(-c4ccc(OCCCN(C)C)nc4F)cc3c21` [Example 10, 8-[6-[3-(dimethylamino)propoxy]-2-fluoro-3-pyridyl]-1-isopropyl-3-methyl-imidazo[4,5-c]quinolin-2-one] was 3.49 µM.
